# The supplement of paper PMC10307832
# What was measured:
# Assay in all cases: relative viability (nuclei count vs DMSO), 5 days (fraction); higher = more cells survive
# 201T = test system: 201T
# Summary of the method: (§1)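 The day after seeding in 1536-well plates, lung cancer cell lines were treated by pin tool with a single drug, or with a fixed anchor-drug dose together with five library-drug doses (not always all listed) in √10 steps. After 5 days, a combined fix-and-stain solution (final 0.05% Triton X-100, 1% formaldehyde, 1 ug/ml Hoechst) was added. Nuclei counted on 4× images gave relative viability as treated counts over vehicle counts, reported as the median of duplicate plates.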
# HARA = test system: HARA
# Summary of the method: as §1
# HCC-44 = test system: HCC-44
# Summary of the method: as §1
# LK-2 = test system: LK-2
# Summary of the method: as §1
# SK-MES-1 = test system: SK-MES-1
# Summary of the method: as §1
# NCI-H520 = test system: NCI-H520
# Summary of the method: as §1
# NCI-H1666 = test system: NCI-H1666
# Summary of the method: as §1
# HCC-15 = test system: HCC-15
# Summary of the method: as §1
# HCC-827 = test system: HCC-827
# Summary of the method: as §1
# COR-L23 = test system: COR-L23
# Summary of the method: as §1
# NCI-H1437 = test system: NCI-H1437
# Summary of the method: as §1
# COR-L 105 = test system: COR-L 105
# Summary of the method: as §1
# NCI-H838 = test system: NCI-H838
# Summary of the method: as §1
# NCI-H1792 = test system: NCI-H1792
# Summary of the method: as §1
# NCI-H441 = test system: NCI-H441
# Summary of the method: as §1
# A-427 = test system: A-427
# Summary of the method: as §1
# NCI-H596 = test system: NCI-H596
# Summary of the method: as §1
# NCI-H23 = test system: NCI-H23
# Summary of the method: as §1
# EKVX = test system: EKVX
# Summary of the method: as §1
# NCI-H1975 = test system: NCI-H1975
# Summary of the method: as §1
# NCI-H650 = test system: NCI-H650
# Summary of the method: as §1
smiles,measurement,setting,value
CC(C)Oc1cc(Nc2nc(N[C@@H](C)c3ccc(F)cn3)ncc2Cl)n[nH]1 [AZ23] + CC1(C)CCC(c2ccc(Cl)cc2)=C(CN2CCN(c3ccc(C(=O)NS(=O)(=O)c4ccc(N[C@H](CCN5CCOCC5)CSc5ccccc5)c(S(=O)(=O)C(F)(F)F)c4)cc3)CC2)C1 [Navitoclax] (partner 0.5 µM),relative viability,201T; first compound 0.01 µM,1.23
same,relative viability,201T; first compound 0.03162 µM,1.22
same,relative viability,201T; first compound 0.3162 µM,1.17
same,relative viability,HARA; first compound 0.01 µM,0.973
same,relative viability,HARA; first compound 0.03162 µM,1.16
same,relative viability,HARA; first compound 0.3162 µM,1.16
same,relative viability,HCC-44; first compound 0.01 µM,1.31
same,relative viability,HCC-44; first compound 0.03162 µM,1
same,relative viability,HCC-44; first compound 0.3162 µM,0.927
same,relative viability,LK-2; first compound 0.01 µM,0.653
same,relative viability,LK-2; first compound 0.03162 µM,0.915
same,relative viability,LK-2; first compound 0.3162 µM,0.909
same,relative viability,SK-MES-1; first compound 0.01 µM,1.4
same,relative viability,SK-MES-1; first compound 0.03162 µM,1.42
same,relative viability,SK-MES-1; first compound 0.3162 µM,1.33
same,relative viability,NCI-H520; first compound 0.01 µM,0.972
same,relative viability,NCI-H520; first compound 0.03162 µM,1.31
same,relative viability,NCI-H520; first compound 0.3162 µM,1.08
same,relative viability,NCI-H1666; first compound 0.01 µM,0.79
same,relative viability,NCI-H1666; first compound 0.03162 µM,0.827
same,relative viability,NCI-H1666; first compound 0.3162 µM,1
same,relative viability,HCC-15; first compound 0.01 µM,0.744
same,relative viability,HCC-15; first compound 0.03162 µM,0.798
same,relative viability,HCC-15; first compound 0.3162 µM,0.71
same,relative viability,HCC-827; first compound 0.01 µM,1
same,relative viability,HCC-827; first compound 0.03162 µM,1.04
same,relative viability,HCC-827; first compound 0.3162 µM,0.991
same,relative viability,COR-L23; first compound 0.01 µM,0.839
same,relative viability,COR-L23; first compound 0.03162 µM,1.11
same,relative viability,COR-L23; first compound 0.3162 µM,1.05
same,relative viability,NCI-H1437; first compound 0.01 µM,1.33
same,relative viability,NCI-H1437; first compound 0.03162 µM,1.29
same,relative viability,NCI-H1437; first compound 0.3162 µM,1.13
same,relative viability,COR-L 105; first compound 0.01 µM,0.543
same,relative viability,COR-L 105; first compound 0.03162 µM,0.869
same,relative viability,COR-L 105; first compound 0.3162 µM,0.736
same,relative viability,NCI-H838; first compound 0.01 µM,1.15
same,relative viability,NCI-H838; first compound 0.03162 µM,1.45
same,relative viability,NCI-H838; first compound 0.3162 µM,1.19
same,relative viability,NCI-H1792; first compound 0.01 µM,0.763
same,relative viability,NCI-H1792; first compound 0.03162 µM,0.858
same,relative viability,NCI-H1792; first compound 0.3162 µM,0.693
same,relative viability,NCI-H441; first compound 0.01 µM,0.518
same,relative viability,NCI-H441; first compound 0.03162 µM,0.755
same,relative viability,NCI-H441; first compound 0.3162 µM,0.769
same,relative viability,A-427; first compound 0.01 µM,0.941
same,relative viability,A-427; first compound 0.03162 µM,1.06
same,relative viability,A-427; first compound 0.3162 µM,0.864
same,relative viability,NCI-H596; first compound 0.01 µM,0.854
same,relative viability,NCI-H596; first compound 0.03162 µM,1.04
same,relative viability,NCI-H596; first compound 0.3162 µM,0.747
same,relative viability,NCI-H23; first compound 0.03162 µM,0.981
same,relative viability,NCI-H23; first compound 0.3162 µM,0.69
same,relative viability,EKVX; first compound 0.01 µM,1.12
same,relative viability,EKVX; first compound 0.03162 µM,1.29
same,relative viability,EKVX; first compound 0.3162 µM,1.02
same,relative viability,NCI-H1975; first compound 0.01 µM,1.24
same,relative viability,NCI-H1975; first compound 0.03162 µM,1.41
same,relative viability,NCI-H1975; first compound 0.3162 µM,1.2
Clc1ccc(Nc2nnc(Cc3ccncc3)c3ccccc23)cc1 [Vatalanib] + CS(=O)(=O)CCNCc1ccc(-c2ccc3ncnc(Nc4ccc(OCc5cccc(F)c5)c(Cl)c4)c3c2)o1 [Lapatinib] (partner 2 µM),relative viability,201T; first compound 0.04 µM,1.02
same,relative viability,201T; first compound 0.1265 µM,0.989
same,relative viability,201T; first compound 0.4 µM,1.04
same,relative viability,201T; first compound 1.265 µM,1.05
same,relative viability,201T; first compound 4 µM,1.07
same,relative viability,HARA; first compound 0.04 µM,0.583
same,relative viability,HARA; first compound 0.1265 µM,0.694
same,relative viability,HARA; first compound 0.4 µM,0.746
same,relative viability,HARA; first compound 1.265 µM,0.731
same,relative viability,HARA; first compound 4 µM,0.948
same,relative viability,HCC-44; first compound 0.04 µM,1.01
same,relative viability,HCC-44; first compound 0.1265 µM,0.941
same,relative viability,HCC-44; first compound 0.4 µM,1.02
same,relative viability,HCC-44; first compound 1.265 µM,0.986
same,relative viability,HCC-44; first compound 4 µM,0.986
same,relative viability,NCI-H650; first compound 0.04 µM,0.694
same,relative viability,NCI-H650; first compound 0.1265 µM,0.784
same,relative viability,NCI-H650; first compound 1.265 µM,0.784
same,relative viability,NCI-H650; first compound 4 µM,0.911
same,relative viability,LK-2; first compound 0.04 µM,0.88
same,relative viability,LK-2; first compound 0.1265 µM,0.831
same,relative viability,LK-2; first compound 0.4 µM,0.698
same,relative viability,LK-2; first compound 1.265 µM,1.03
same,relative viability,LK-2; first compound 4 µM,0.93
same,relative viability,SK-MES-1; first compound 0.04 µM,0.516
same,relative viability,SK-MES-1; first compound 0.1265 µM,0.457
same,relative viability,SK-MES-1; first compound 0.4 µM,0.464
same,relative viability,SK-MES-1; first compound 1.265 µM,0.462
same,relative viability,SK-MES-1; first compound 4 µM,0.429
same,relative viability,NCI-H520; first compound 0.04 µM,0.94
same,relative viability,NCI-H520; first compound 0.1265 µM,0.711
same,relative viability,NCI-H520; first compound 0.4 µM,0.891
same,relative viability,NCI-H520; first compound 1.265 µM,0.741
same,relative viability,NCI-H520; first compound 4 µM,0.82
same,relative viability,NCI-H1666; first compound 0.04 µM,0.728
same,relative viability,NCI-H1666; first compound 0.1265 µM,0.749
same,relative viability,NCI-H1666; first compound 0.4 µM,0.863
same,relative viability,NCI-H1666; first compound 1.265 µM,0.529
same,relative viability,NCI-H1666; first compound 4 µM,0.545
same,relative viability,HCC-15; first compound 0.04 µM,0.874
same,relative viability,HCC-15; first compound 0.1265 µM,0.699
same,relative viability,HCC-15; first compound 0.4 µM,0.853
same,relative viability,HCC-15; first compound 1.265 µM,0.825
same,relative viability,HCC-15; first compound 4 µM,0.837
same,relative viability,HCC-827; first compound 0.04 µM,0.19
same,relative viability,HCC-827; first compound 0.1265 µM,0.174
same,relative viability,HCC-827; first compound 0.4 µM,0.182
same,relative viability,HCC-827; first compound 1.265 µM,0.165
same,relative viability,HCC-827; first compound 4 µM,0.188
same,relative viability,COR-L23; first compound 0.04 µM,0.848
same,relative viability,COR-L23; first compound 0.1265 µM,0.753
same,relative viability,COR-L23; first compound 0.4 µM,1.01
same,relative viability,COR-L23; first compound 1.265 µM,1.07
same,relative viability,COR-L23; first compound 4 µM,0.868
same,relative viability,NCI-H1437; first compound 0.04 µM,0.856
same,relative viability,NCI-H1437; first compound 0.1265 µM,0.779
same,relative viability,NCI-H1437; first compound 0.4 µM,0.934
same,relative viability,NCI-H1437; first compound 1.265 µM,0.734
same,relative viability,NCI-H1437; first compound 4 µM,0.848
same,relative viability,COR-L 105; first compound 0.04 µM,0.375
same,relative viability,COR-L 105; first compound 0.1265 µM,0.301
same,relative viability,COR-L 105; first compound 0.4 µM,0.404
same,relative viability,COR-L 105; first compound 1.265 µM,0.358
same,relative viability,COR-L 105; first compound 4 µM,0.353
same,relative viability,NCI-H838; first compound 0.04 µM,1.06
same,relative viability,NCI-H838; first compound 0.1265 µM,0.944
same,relative viability,NCI-H838; first compound 0.4 µM,1.09
same,relative viability,NCI-H838; first compound 1.265 µM,0.841
same,relative viability,NCI-H838; first compound 4 µM,0.961
same,relative viability,NCI-H1792; first compound 0.04 µM,0.892
same,relative viability,NCI-H1792; first compound 0.1265 µM,0.852
same,relative viability,NCI-H1792; first compound 0.4 µM,0.966
same,relative viability,NCI-H1792; first compound 1.265 µM,0.87
same,relative viability,NCI-H1792; first compound 4 µM,0.877
same,relative viability,A-427; first compound 0.04 µM,1.01
same,relative viability,A-427; first compound 0.1265 µM,0.938
same,relative viability,A-427; first compound 0.4 µM,0.769
same,relative viability,A-427; first compound 1.265 µM,0.972
same,relative viability,A-427; first compound 4 µM,1.11
same,relative viability,NCI-H596; first compound 0.04 µM,1.07
same,relative viability,NCI-H596; first compound 0.1265 µM,1.22
same,relative viability,NCI-H596; first compound 0.4 µM,1.14
same,relative viability,NCI-H596; first compound 1.265 µM,1.03
same,relative viability,NCI-H596; first compound 4 µM,1.16
same,relative viability,NCI-H23; first compound 0.04 µM,0.963
same,relative viability,NCI-H23; first compound 0.1265 µM,1.15
same,relative viability,NCI-H23; first compound 0.4 µM,1.3
same,relative viability,NCI-H23; first compound 1.265 µM,0.993
same,relative viability,NCI-H23; first compound 4 µM,1.08
same,relative viability,EKVX; first compound 0.04 µM,0.195
same,relative viability,EKVX; first compound 0.1265 µM,0.238
same,relative viability,EKVX; first compound 0.4 µM,0.547
same,relative viability,EKVX; first compound 1.265 µM,0.186
same,relative viability,EKVX; first compound 4 µM,0.216
same,relative viability,NCI-H1975; first compound 0.04 µM,0.856
same,relative viability,NCI-H1975; first compound 0.1265 µM,0.827
same,relative viability,NCI-H1975; first compound 0.4 µM,0.942
same,relative viability,NCI-H1975; first compound 1.265 µM,0.808
same,relative viability,NCI-H1975; first compound 4 µM,0.769
